Measured values taken from patent US20080051429A1, “USE OF 4-AMINO-PIPERIDINES FOR TREATING SLEEP DISORDERS” (priority 2006, published 2008).

Columns and labels:
Assay in all cases: R-SAT broad profiling
Format in all cases: cell-based
Design in all cases: expressed in transfected cells
Details in all cases: read-out: pEC50/pIC50 (converted)
5HT1A = biological target: T1, 5HT1A (Homo sapiens, UniProt P08908)
T1 sequence (P08908 1-422): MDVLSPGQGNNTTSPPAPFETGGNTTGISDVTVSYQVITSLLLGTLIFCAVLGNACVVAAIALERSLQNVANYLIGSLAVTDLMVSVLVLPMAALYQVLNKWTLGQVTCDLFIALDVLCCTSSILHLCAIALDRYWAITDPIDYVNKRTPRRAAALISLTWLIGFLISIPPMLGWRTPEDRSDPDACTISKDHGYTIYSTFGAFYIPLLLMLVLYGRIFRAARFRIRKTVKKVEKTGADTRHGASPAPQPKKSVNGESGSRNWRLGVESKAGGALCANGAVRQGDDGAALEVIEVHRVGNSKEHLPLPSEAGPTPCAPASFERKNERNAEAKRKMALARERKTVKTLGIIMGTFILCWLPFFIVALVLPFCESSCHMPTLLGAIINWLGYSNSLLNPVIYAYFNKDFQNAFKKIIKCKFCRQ
Experimental: (§1) The functional receptor assay, Receptor Selection and Amplification Technology (R-SAT), was used (with minor modifications from that previously described U.S. Pat. No. 5,707,798) to screen compounds for efficacy at the 5-HT2A receptor. Briefly, NIH3T3 cells were grown in 96 well tissue culture plates to 70-80% confluence. Cells were transfected for 12-16 hours with plasmid DNAs using superfect (Qiagen Inc.) as per manufacture's protocols. R-SAT's were generally performed with 50 ng/well of receptor and 20 ng/well of Beta-galactosidase plasmid DNA. All receptor and G-protein constructs used were in the pSI mammalian expression vector (Promega Inc) as described in U.S. Pat. No. 5,707,798. The 5HT2A receptor gene was amplified by nested PCR from brain cDNA using the oligodeoxynucleotides based on the published sequence (see Saltzman et. al. Biochem. Biophys. Res. Comm. 181:1469-78 (1991)). Large-scale transfections, cells were transfected for 12-16 hours, then trypsinized and frozen in DMSO. Frozen cells were later thawed, plated at 10,000-40,000 cells per well of a 96 well plate that contained drug. With both methods, cells were then grown in a humidified atmosphere with 5% ambient CO2 for five days. Media was then removed from the plates and marker gene activity was measured by the addition of the beta-galactosidase substrate ONPG (in PBS with 5% NP-40). The resulting colorimetric reaction was measured in a spectrophotometric plate reader (Titertek Inc.)at […]. All data were analyzed using the computer program XLFit (IDBSm). Efficacy is the percent maximal repression compared to repression by a control compound (ritanserin in the case of 5HT2A). pIC50 is the negative of the log(IC50), where IC50 is the calculated concentration in Molar that produces 50% maximal repression.
(§2) The R-SAT assay (described above in example 136) was used to investigate the selectivity of 2-(4-Methoxyphenyl)-N-(4-methylbenzyl)-N-(1-methylpiperidin-4-yl)acetamide hydrochloride.

5HT1E = 5HT1E (Homo sapiens, UniProt P28566)
Sequence of 5HT1E (P28566 whole entry, species assumed): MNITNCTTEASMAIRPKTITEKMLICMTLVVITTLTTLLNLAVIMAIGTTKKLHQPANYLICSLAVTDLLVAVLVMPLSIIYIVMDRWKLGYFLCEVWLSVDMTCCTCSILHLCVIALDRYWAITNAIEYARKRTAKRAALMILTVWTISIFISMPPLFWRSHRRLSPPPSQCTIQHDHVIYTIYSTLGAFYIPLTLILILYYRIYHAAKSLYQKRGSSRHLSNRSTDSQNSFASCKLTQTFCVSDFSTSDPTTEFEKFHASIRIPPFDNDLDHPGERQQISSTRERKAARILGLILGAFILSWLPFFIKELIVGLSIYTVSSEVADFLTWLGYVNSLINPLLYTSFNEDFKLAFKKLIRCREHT
Experimental: as §1, §2

5HT2C = biological target: T2, 5HT2C (Homo sapiens, UniProt P28335)
T2 sequence (P28335 33-458): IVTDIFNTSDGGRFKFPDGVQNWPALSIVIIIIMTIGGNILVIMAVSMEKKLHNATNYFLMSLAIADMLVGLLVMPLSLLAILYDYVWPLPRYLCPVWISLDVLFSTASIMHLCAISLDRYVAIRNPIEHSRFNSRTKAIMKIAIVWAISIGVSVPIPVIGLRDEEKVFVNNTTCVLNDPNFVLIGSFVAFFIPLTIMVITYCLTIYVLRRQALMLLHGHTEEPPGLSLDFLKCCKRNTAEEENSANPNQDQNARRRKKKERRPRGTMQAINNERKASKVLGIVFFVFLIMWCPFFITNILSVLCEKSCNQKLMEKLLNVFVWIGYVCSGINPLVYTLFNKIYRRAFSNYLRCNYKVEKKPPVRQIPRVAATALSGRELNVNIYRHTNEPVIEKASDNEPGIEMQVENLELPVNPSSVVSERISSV
Experimental: as §1, §2

5HT1B = 5HT1B (Homo sapiens, UniProt P28222)
Sequence of 5HT1B (P28222 whole entry, species assumed): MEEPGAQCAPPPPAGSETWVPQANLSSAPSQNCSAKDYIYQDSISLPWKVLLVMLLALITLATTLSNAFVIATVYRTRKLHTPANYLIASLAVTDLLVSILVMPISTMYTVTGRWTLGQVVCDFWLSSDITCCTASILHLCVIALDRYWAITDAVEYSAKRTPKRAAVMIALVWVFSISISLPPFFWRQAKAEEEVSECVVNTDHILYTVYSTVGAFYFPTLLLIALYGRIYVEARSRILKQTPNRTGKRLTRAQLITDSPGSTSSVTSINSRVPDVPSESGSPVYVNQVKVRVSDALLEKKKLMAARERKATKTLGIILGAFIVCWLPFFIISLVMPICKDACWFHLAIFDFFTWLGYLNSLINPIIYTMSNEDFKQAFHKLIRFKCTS
Experimental: as §1, §2

5HT1F = biological target: T3, 5HT1F (Homo sapiens, UniProt P30939)
T3 sequence (P30939 1-366): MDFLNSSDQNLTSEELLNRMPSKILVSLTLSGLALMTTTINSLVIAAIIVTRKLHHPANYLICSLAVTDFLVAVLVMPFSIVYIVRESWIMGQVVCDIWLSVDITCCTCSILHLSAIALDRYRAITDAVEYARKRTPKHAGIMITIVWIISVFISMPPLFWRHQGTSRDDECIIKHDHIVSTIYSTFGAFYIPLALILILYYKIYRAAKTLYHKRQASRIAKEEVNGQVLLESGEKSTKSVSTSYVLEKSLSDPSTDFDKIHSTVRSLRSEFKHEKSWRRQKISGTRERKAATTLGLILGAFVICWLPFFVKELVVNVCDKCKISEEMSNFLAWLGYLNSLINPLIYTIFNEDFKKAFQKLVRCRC
Experimental: as §1, §2

5HT2B = 5HT2B (Homo sapiens, UniProt P41595)
Sequence of 5HT2B (P41595 whole entry, species assumed): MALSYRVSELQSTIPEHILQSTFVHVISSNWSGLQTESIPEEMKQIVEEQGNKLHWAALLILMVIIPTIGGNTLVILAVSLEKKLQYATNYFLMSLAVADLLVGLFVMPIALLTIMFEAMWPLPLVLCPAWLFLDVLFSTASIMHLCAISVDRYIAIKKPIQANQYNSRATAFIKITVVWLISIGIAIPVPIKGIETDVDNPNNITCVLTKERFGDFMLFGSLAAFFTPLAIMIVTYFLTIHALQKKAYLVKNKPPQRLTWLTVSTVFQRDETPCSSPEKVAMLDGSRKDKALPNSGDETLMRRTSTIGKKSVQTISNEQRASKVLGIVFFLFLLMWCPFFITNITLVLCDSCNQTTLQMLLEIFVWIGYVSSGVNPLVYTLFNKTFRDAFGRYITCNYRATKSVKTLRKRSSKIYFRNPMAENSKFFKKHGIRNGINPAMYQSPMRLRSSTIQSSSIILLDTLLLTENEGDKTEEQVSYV
Experimental: as §1, §2

5HT1D = 5HT1D (Homo sapiens, UniProt P28221)
Sequence of 5HT1D (P28221 whole entry, species assumed): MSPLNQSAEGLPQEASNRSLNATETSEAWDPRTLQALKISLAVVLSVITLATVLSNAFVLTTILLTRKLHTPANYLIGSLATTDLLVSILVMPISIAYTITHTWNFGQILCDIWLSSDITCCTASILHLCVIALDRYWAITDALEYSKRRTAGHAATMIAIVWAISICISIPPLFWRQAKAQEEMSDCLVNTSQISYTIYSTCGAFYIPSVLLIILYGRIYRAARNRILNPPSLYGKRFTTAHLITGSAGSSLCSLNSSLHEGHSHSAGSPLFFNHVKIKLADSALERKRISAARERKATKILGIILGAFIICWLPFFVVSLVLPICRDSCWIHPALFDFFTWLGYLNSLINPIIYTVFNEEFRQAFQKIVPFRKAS
Experimental: as §1, §2

SMILES: COc1ccc(CC(=O)N(Cc2ccc(C)cc2)C2CCN(C)CC2)cc1 [Example 50ELH27, 2-(4-Methoxyphenyl)-N-(4-methylbenzyl)-N-(1-methylpiperidin-4-yl)acetamide]
- EC50 (5HT1A; agonist): > 3.16 µM
- IC50 (5HT1A; antagonist): > 3.16 µM
- EC50 (5HT1E; agonist): > 3.16 µM
- IC50 (5HT1E; antagonist): > 3.16 µM
- EC50 (5HT2C; agonist): > 3.16 µM
- IC50 (5HT2C; inverse agonist): 0.1 µM
- EC50 (5HT1B; agonist): > 3.16 µM
- IC50 (5HT1B; antagonist): > 3.16 µM
- EC50 (5HT1F; agonist): > 3.16 µM
- IC50 (5HT1F; antagonist): > 3.16 µM
- EC50 (5HT2B; agonist): > 3.16 µM
- IC50 (5HT2B; inverse agonist): 0.126 µM
- EC50 (5HT1D; agonist): > 3.16 µM
- IC50 (5HT1D; antagonist): > 3.16 µM
